Data published in ChEMBL document CHEMBL3046330, “Synthesis and biological activity of hydrazidehydrazones and their corresponding 3-acetyl-2,5-disubstituted-2,3-dihydro-1,3,4-oxadiazoles” (Med Chem Res, 2012).
In brackets after ≈: the same amount, converted by molar mass. Activity calls are given as the source filed them. The rule behind the calls is not given here.

Experiments:
Transcription factor Sp1 = Transcription factor Sp1 (Homo sapiens, UniProt P08047); test: Inhibition of Sp1 (unknown origin) up to 25 ug/ml by luciferase reporter gene assay
Transcription factor Sp1, sequence (P08047 whole entry): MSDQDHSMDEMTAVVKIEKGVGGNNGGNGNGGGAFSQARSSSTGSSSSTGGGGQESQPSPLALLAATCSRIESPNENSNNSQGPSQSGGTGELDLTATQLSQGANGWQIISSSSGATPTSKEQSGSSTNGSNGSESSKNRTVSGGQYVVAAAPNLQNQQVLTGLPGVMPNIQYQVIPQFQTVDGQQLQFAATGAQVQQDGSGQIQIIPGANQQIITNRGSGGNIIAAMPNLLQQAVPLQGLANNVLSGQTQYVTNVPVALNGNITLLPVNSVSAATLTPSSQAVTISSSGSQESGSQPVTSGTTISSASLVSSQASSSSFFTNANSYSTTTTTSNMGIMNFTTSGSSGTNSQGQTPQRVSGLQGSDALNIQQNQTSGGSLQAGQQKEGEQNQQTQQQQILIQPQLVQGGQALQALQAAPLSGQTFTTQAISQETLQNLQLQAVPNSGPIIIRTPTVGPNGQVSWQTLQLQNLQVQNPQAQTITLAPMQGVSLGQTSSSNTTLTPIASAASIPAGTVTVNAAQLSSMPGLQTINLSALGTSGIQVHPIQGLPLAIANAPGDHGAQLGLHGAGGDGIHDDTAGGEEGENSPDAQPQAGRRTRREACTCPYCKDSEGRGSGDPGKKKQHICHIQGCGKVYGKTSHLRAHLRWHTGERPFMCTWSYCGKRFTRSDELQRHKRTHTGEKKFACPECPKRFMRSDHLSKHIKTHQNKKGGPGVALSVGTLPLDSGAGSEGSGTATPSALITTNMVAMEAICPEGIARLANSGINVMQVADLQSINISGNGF

Vero = test: Cytotoxicity against Chlorocebus aethiops (African green monkey) Vero cells assessed as cell viability up to 25 ug/ml after 48 hr by neutral red assay; format: cell-based; conditions: chlorocebus sabaeus
Candida parapsilosis = test: Antifungal activity against Candida parapsilosis NRRL Y-12696 after 24 hr by NCCLS broth microdilution method; format: functional; conditions: Lodderomyces parapsilosis, NRRL Y-12696, 24 h
[1] = molecular target: T1, Nitric oxide synthase, inducible (Mus musculus, UniProt P29477); test: Inhibition of iNOS in Mus musculus (mouse) RAW264.7 cells assessed as inhibition of LPS-induced nitrite production incubated for 30 min prior to LPS challenge measured after 24 hr by Griess assay; format: cell-based
T1 sequence (P29477 whole entry): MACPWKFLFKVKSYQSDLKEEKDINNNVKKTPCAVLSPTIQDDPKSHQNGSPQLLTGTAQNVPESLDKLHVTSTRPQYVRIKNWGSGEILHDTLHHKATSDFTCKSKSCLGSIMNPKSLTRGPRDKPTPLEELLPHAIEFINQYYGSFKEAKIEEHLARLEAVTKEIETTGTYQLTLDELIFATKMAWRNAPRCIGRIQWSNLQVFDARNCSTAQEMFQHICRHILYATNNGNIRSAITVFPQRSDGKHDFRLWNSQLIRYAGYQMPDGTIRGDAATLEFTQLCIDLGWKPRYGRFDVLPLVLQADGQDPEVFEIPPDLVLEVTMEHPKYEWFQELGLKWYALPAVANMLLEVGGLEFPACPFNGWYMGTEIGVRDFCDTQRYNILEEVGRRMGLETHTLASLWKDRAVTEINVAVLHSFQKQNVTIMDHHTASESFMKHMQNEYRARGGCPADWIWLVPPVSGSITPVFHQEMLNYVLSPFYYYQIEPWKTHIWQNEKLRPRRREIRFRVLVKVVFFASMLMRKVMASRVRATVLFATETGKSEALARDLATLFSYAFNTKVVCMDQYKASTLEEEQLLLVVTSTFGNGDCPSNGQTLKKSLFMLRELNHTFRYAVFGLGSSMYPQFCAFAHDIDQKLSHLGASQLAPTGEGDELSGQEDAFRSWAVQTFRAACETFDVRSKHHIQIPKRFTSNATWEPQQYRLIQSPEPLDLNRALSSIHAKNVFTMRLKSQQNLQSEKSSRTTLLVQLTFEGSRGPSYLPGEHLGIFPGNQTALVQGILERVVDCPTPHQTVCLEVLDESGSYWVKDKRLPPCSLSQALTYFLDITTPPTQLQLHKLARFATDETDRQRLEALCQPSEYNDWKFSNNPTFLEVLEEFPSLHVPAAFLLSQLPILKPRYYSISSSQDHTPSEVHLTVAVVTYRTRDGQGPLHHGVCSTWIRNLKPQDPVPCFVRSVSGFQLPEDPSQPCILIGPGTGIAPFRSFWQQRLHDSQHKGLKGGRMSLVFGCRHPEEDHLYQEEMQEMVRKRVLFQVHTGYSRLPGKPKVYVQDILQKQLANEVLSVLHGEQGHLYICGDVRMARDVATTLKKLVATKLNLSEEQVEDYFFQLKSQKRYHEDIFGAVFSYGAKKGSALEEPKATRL

RAW264.7 = test: Cytotoxicity against Mus musculus (mouse) RAW264.7 cells up to 25 ug/ml; format: cell-based
Nakaseomyces glabratus = test: Antifungal activity against Candida glabrata clinical isolate after 24 hr by NCCLS broth microdilution method; format: functional
KB = test: Cytotoxicity against Homo sapiens (human) KB cells assessed as cell viability up to 25 ug/ml after 48 hr by neutral red assay; format: functional, cell-based
SK-MEL = test: Cytotoxicity against Homo sapiens (human) SK-MEL cells assessed as cell viability up to 25 ug/ml after 48 hr by neutral red assay; format: functional, cell-based
Botrytis cinerea = test: Antifungal activity against Botryotinia fuckeliana at 0.3 to 30 uM after 48 to 72 hr by broth microdilution method; format: functional, organism-based
Candida albicans [2] = test: Antifungal activity against Candida albicans clinical isolate after 24 hr by NCCLS broth microdilution method; format: functional
HL-60 [3] = test: Cytotoxicity against Homo sapiens (human) HL60 cells up to 25 ug/ml; format: cell-based
Colletotrichum fragariae = test: Antifungal activity against Colletotrichum fragariae at 0.3 to 30 uM after 48 to 72 hr by broth microdilution method; format: functional, organism-based
Candida tropicalis [4] = test: Antifungal activity against Candida tropicalis NRRL Y-12968 at 2000 ug/ml by agar diffusion method; format: functional; conditions: read-out: IZ
Cyberlindnera jadinii = test: Antifungal activity against Cyberlindnera jadinii NRRL Y-900 after 24 hr by NCCLS broth microdilution method; format: functional; conditions: Williopsis jadinii, NRRL Y-900, 24 h
SK-OV-3 = test: Cytotoxicity against Homo sapiens (human) SKOV3 cells assessed as cell viability up to 25 ug/ml after 48 hr by neutral red assay; format: functional, cell-based
[5] = Cytotoxicity against Sus scrofa (pig) LLC-PK11 cells assessed as cell viability up to 25 ug/ml after 48 hr by neutral red assay; format: cell-based; conditions: llc-pk11, 48 h
Candida tropicalis [6] = test: Antifungal activity against Candida tropicalis NRRL Y-12968 after 24 hr by NCCLS broth microdilution method; format: functional; conditions: NRRL Y-12968, 24 h
Pichia kudriavzevii = test: Antifungal activity against Pichia kudriavzevii NRRL Y-7179 after 24 hr by NCCLS broth microdilution method; format: functional; conditions: NRRL Y-7179, 24 h
Candida albicans [7] = test: Antifungal activity against Candida albicans ATCC 90028 after 24 hr by NCCLS broth microdilution method; format: functional; conditions: ATCC 90028, 24 h
Candida albicans [8] = test: Antifungal activity against Candida albicans clinical isolate at 2000 ug/ml by agar diffusion method; format: functional; conditions: read-out: IZ
BT-549 = test: Cytotoxicity against Homo sapiens (human) BT549 cells assessed as cell viability up to 25 ug/ml after 48 hr by neutral red assay; format: functional, cell-based
SW1353 = test: Inhibition of PMA-induced NFkappaB activity in Homo sapiens (human) SW1353 cells up to 25 ug/ml incubated for 30 min followed by PMA induction for 8 hr by luciferase reporter gene assay; format: cell-based
HL-60 [9] = test: Antioxidant activity in PMA-stimulated Homo sapiens (human) HL60 cells assessed as inhibition of intracellular ROS generation up to 25 ug/ml incubated for 30 min prior to PMA stimulation measured after 30 min by DCFH-DA assay relative to vehicle-treated control; format: functional, cell-based
Candida albicans [10] = test: Antifungal activity against Candida albicans NRRL Y-12983 after 24 hr by NCCLS broth microdilution method; format: functional; conditions: NRRL Y-12983, 24 h
[11] = molecular target: T2, Nitric oxide synthase, inducible (Mus musculus) (UniProt P29477); test: Inhibition of iNOS in Mus musculus (mouse) RAW264.7 cells assessed as inhibition of LPS-induced nitrite production up to 25 ug/ml incubated for 30 min prior to LPS challenge measured after 24 hr by Griess assay relative to vehicle-treated control; format: cell-based
T2 sequence (whole entry): T1 sequence (P29477 whole entry)

inhibition (INH) (Transcription factor Sp1)	MIC (Candida parapsilosis) [µg/mL]	MIC (Nakaseomyces glabratus) [µg/mL]	MIC (Candida albicans [2]) [µg/mL]	MIC (Cyberlindnera jadinii) [µg/mL]	MIC (Candida tropicalis [6]) [µg/mL]	MIC (Pichia kudriavzevii) [µg/mL]	MIC (Candida albicans [7]) [µg/mL]	SMILES	Activity (Vero)	Activity (RAW264.7)	Activity (KB)	Activity (SK-MEL)	Activity (HL-60 [3])	zone of inhibition at 2000 µg/mL (Candida tropicalis [4]) [mm]	Activity (SK-OV-3)	Activity [5]	zone of inhibition at 2000 µg/mL (Candida albicans [8]) [mm]	Activity (BT-549)	inhibition (SW1353)	inhibition (HL-60 [9])	also measured
Not Active	500 (≈ 1380 µM)	500 (≈ 1380 µM)	250 (≈ 688 µM)	500 (≈ 1380 µM)	250 (≈ 688 µM)	500 (≈ 1380 µM)	1000 (≈ 2750 µM)	CC(=O)N1N=C(c2ccc(F)cc2)OC1c1ccc(Br)cc1 (configuration not stated)	Not Active	Non-toxic	inactive	inactive	Non-toxic	9	inactive	Not Active	9	inactive	inactive	inactive	IC50 [1]: > 68.8 µM; Activity (Botrytis cinerea): inactive; Activity (Colletotrichum fragariae): inactive; MIC (Candida albicans [10]): 500 µg/mL (≈ 1380 µM)
Not Active	500 (≈ 1650 µM)	500 (≈ 1650 µM)	500 (≈ 1650 µM)	500 (≈ 1650 µM)	500 (≈ 1650 µM)	500 (≈ 1650 µM)	500 (≈ 1650 µM)	CC(=O)N1N=C(c2ccc(F)cc2)OC1c1ccc(F)cc1 (configuration not stated)	Not Active	Non-toxic	inactive	inactive	Non-toxic	9	inactive	Not Active	9	inactive	inactive	inactive	inhibition [11]: inactive; MIC (Candida albicans [10]): 500 µg/mL (≈ 1650 µM)
Not Active	1000 (≈ 3050 µM)	500 (≈ 1530 µM)	250 (≈ 764 µM)	500 (≈ 1530 µM)	500 (≈ 1530 µM)	500 (≈ 1530 µM)	500 (≈ 1530 µM)	CC(=O)N1N=C(c2ccc(F)cc2)OC1c1ccc(N(C)C)cc1 (configuration not stated)	Not Active	Non-toxic	inactive	inactive	Non-toxic	9	inactive	Not Active	9	inactive	inactive	inactive	IC50 [1]: 61.1 µM; Activity (Botrytis cinerea): inactive; Activity (Colletotrichum fragariae): inactive; MIC (Candida albicans [10]): 500 µg/mL (≈ 1530 µM)
Not Active	250 (≈ 707 µM)	500 (≈ 1410 µM)	500 (≈ 1410 µM)	250 (≈ 707 µM)	125 (≈ 354 µM)	125 (≈ 354 µM)	500 (≈ 1410 µM)	CC(=O)N1N=C(c2ccc(F)cc2)OC1/C=C/c1ccc(N(C)C)cc1 (configuration not stated)	Not Active	Non-toxic	inactive	inactive	Non-toxic	9	inactive	Not Active	9	inactive	inactive	inactive	inhibition [11]: inactive; MIC (Candida albicans [10]): 500 µg/mL (≈ 1410 µM)
